Experimental data from patent US20260115250A1, “METHODS OF TREATING AGE-RELATED MACULAR DEGENERATION” (Character Biosciences, Inc., priority 2022, published 2026).
Peptide text beside a SMILES is read from it.

Columns and labels:
HepG2 cells = test: HepG2 cholesterol import (BODIPY-Cholesterol); format: cell-based; conditions: HepG2, peptide:lipid complexes from 30 μM diluted 1:3
Protocol: HepG2 cells were seeded on a 96-well plate at 10,000 cells per well and grown to confluence. A solution of 500 μM DMPC and 50 μM BODIPY-Cholesterol was prepared in serum free EMEM. Peptides were diluted to 20 μM in serum free EMEM (a 2× solution). Peptides were added to lipid solution in equal parts (60 μL each) to create final 1× concentration and incubated for 1 hour at 37° C. HepG2 cells were serum starved in serum-free EMEM for 1 hour at 37° C. Peptide: Lipid complexes (100 μL total volume per well) were transferred to HepG2 cells for 2 hours at 37° C. Cells were washed, fixed, and intracellular fluorescence was read on Promega GloMax at 475 nm excitation, 500-550 emission. Fluorescence values were background corrected from no treatment conditions. Data are presented as mean+SD for two runs.
HepG2 cells were seeded on 96-well plates at 10,000 cells per well and grown to confluence. Peptide: Lipid complexes were created by preparing a solution of serum-free EMEM containing 30 μM peptide, 750 μM DMPC, and 75 μM BODIPY-Cholesterol. Peptide: Lipid complexes were serially diluted 1:3 for 5 concentrations, and incubated for 1 hour at 37° C. […] Cells were washed, fixed, and intracellular fluorescence was read on Promega GloMax at 475 nm excitation, 500-550 emission. Fluorescence values were background corrected from no treatment conditions. […]

ARPE-19 cells = test: ARPE-19 cholesterol import (BODIPY-Cholesterol); format: cell-based, human; conditions: ARPE-19, 0.37-30 μM peptide, FIG. 15
Protocol: FIG. 12 and FIGS. 14A-14B illustrate the results of ARPE-19 cholesterol import testing. ARPE-19 cells were seeded on 96-well plates at 25,000 cells per well and grown to confluence. A 2× solution of 500 μM DMPC and 50 μM BODIPY-Cholesterol were prepared in serum free DMEM: F12. Peptides were diluted to 20 μM in serum free DMEM: F12 (a 2× solution). Peptides were added to lipid solution in equal parts (60 μL each) and were incubated for 1 hour at 37° C. ARPE-19 cells were serum starved in serum free DMEM: F12 for 1 hour at 37° C. Peptide: Lipid complexes (100 μL total volume per well) were transferred to ARPE-19 cells for 2 hours at 37° C. Cells were washed, fixed, and intracellular fluorescence was read on Promega GloMax at 475 nm excitation, 500-550 emission. Fluorescence values were background corrected from no treatment conditions. Data are presented as mean+SD for two runs.
FIG. 15 illustrates ARPE-19 cholesterol import titration curves for a subset of the peptides. ARPE-19 cells were seeded on 96-well plates at 25,000 cells per well and grown to confluence. A 2× solution of 500 μM DMPC and 50 μM BODIPY-Cholesterol was prepared in serum free DMEM: F12. Peptides were diluted to 0.74-60 μM in serum free DMEM: F12 (2× solutions). Peptides were added to lipid solution in equal parts (60 μL each) to create final peptide concentrations of 0.37-30 µM and incubated for 1 hour at 37° C. ARPE-19 cells were serum starved in serum free DMEM: F12 for 1 hour at 37° C. Peptide: Lipid complexes (100 μL total volume per well) were transferred to ARPE-19 cells for 2 hours at 37° C. Cells were washed, fixed, and intracellular fluorescence was read on Promega GloMax at 475 nm excitation, 500-550 emission. Fluorescence values were background corrected from no treatment conditions. […]
ARPE-19 cells were seeded on 96-well plates at 25,000 cells per well and grown to confluence. […] Cells were washed, fixed, and intracellular fluorescence was read on Promega GloMax at 475 nm excitation, 500-550 emission. Fluorescence values were background corrected from no treatment conditions. […]

For `CC[C@H](C)[C@H](NC(=O)CNC(=O)[C@H](CO)NC(=O)[C@@H](NC(=O)[C@H](Cc1c[nH]c2ccccc12)NC(=O)[C@H](Cc1c[nH]cn1)NC(=O)[C@H](CCC(=O)O)NC(=O)[C@H](Cc1ccccc1)NC(=O)[C@H](CCCNC(=N)N)NC(=O)[C@H](CC(C)C)NC(=O)[C@H](CC(C)C)NC(=O)[C@H](CCCNC(=N)N)NC(=O)[C@H](CCCCN)NC(=O)[C@H](CCCNC(=N)N)NC(=O)[C@H](CC(C)C)NC(=O)[C@H](CCCCN)NC(=O)[C@H](CCCNC(=N)N)NC(=O)[C@H](CC(C)C)NC(=O)[C@@H](N)Cc1c[nH]cn1)[C@@H](C)CC)C(=O)N[C@@H](Cc1ccc(O)cc1)C(=O)N[C@@H](CO)C(=O)N[C@@H](CCC(=O)O)C(=O)N[C@@H](CS)C(=O)N[C@@H](CCCCN)C(=O)N[C@@H](Cc1c[nH]cn1)C(=O)N[C@@H](CC(C)C)C(=O)N[C@H](C(=O)N[C@@H](CCC(N)=O)C(=O)N[C@@H](CCC(=O)O)C(=O)O)[C@@H](C)CC` [T-025] (H-HLRKLRKRLLRFEHWISGIYSECKHLIQE-OH; N-terminus and C-terminus assumed), the cholesterol import titration (HepG2 cells) was “concentration-dependent cholesterol import activity” and the cholesterol import titration (ARPE-19 cells) was “concentration-dependent increase in cholesterol import”.
